Reference: patent US6716842B2, “Antidiabetic agents” (Warner-Lambert Company, LLC, priority 2002, dated 2004)
Like-named read-outs stand apart in the source and are kept apart here.

Tested on: PPAR-γ (promoter/enhancer of the murine aP2 gene in 3T3-L1 cells)
Test: 3T3-L1 transient reporter assay (AD3T3L1)
Format: cell-based
Details: for % Max BRL: maximal effect relative to reference BRL 49653
Procedure: TEST E—3T3-L1 TRANSIENT REPORTER ASSAY
This assay is used to determine the potential of putative PPAR-γ ligands to activate the promoter/enhancer of the murine aP2 gene. 3T3-L1 preadipocytes are cultured on collagen coated plates in DMEM containing 10% Calf serum for 48 hours post-confluence. The cells are then cultured for approximately 3 days in DMEM containing 10% Fetal Bovine Serum (FBS), 0.5-mM methyl isobutylxanthine, 0.25 μM dexamethasone, and 1 μg/ml of insulin. Cells are detached from the plates with Trypsin-EDTA and resuspended in Phosphate Buffered Saline (PBS).
The reporter construct used in this assay is comprised of the −5.4 Kb 5′ flanking region of the murine aP2 gene inserted into the cloning site of the TKpGL3 luciferase vector. Transfection efficiency is controlled by co-transfection of the reference plasmid CMV-β-galactosidase. The reporter construct and the reference plasmid are transiently co-transfected into the cells by electroporation. The transfected cells are plated into collagen coated 96-well plates and cultured overnight. Cells are then incubated for 48 hours with the test compounds and then harvested. The lysates are measured for luciferase and β-galactosidase activities using the Dual-Light® luciferase kit from Tropix on a EG&G Berthold MicroLumat LB96P luminometer.

Compound | EC50 (Mus musculus) [µM] | % Max BRL [%] | EC50 [µM]
Cc1oc(-c2ccccc2)nc1CCOc1ccc(CCC(=O)O)c(OCc2ccccn2)c1 [3-[4-[2-(5-Methyl-2-phenyl-oxazol-4-yl)-ethoxy]-2-(pyridin-2-ylmethoxy)-phenyl]-propionic acid] | 0.103 | 108 | –
Cc1oc(-c2ccccc2)nc1CCOc1ccc(CCC(=O)O)c(O)c1 [3-[4-[2-(5-Methyl-2-phenyl-oxazol-4-yl)-ethoxy]-2-(hydroxy)-phenyl]-propionic acid] | 3.4 | 70 | –
3-{2-Hydroxy-4-[2-(5-methyl-2-phenyl-oxazol-4-yl)-ethoxy]-phenyl}-propionic acid ethyl ester | – | 74 | 5.9
